Results taken from US6130220A, “Sulfamide-metalloprotease inhibitors” (Syntex (USA) Inc., priority 1999, dated 2000).

Columns and labels:
TNF-α = experiment: Inhibition of LPS induced TNF-α production in mice in vivo; settings: s.c. compound, LPS 50 μg/mouse i.p. 1 h later, blood after 1.5 h
Description: The activity of compounds of this invention in inhibiting the TNF-α release was determined, using a minor modification of the methods described in Zanetti, G.; Heumann, D., et. al., "Cytokine production after intravenous or peritoneal Gram-negative bacterial challenge in mice" J. Immunol., 148, 1890, (1992) and Sekut, L., Menius, J. A., et. al., "Evaluation if the significance of elevated levels of systemic and localized tumor necrosis factor in different animal models of inflammation" J. Lab. Clin. Med., 124, 813, (1994).
Female Balbic mice were anesthetized and injected subcutaneously with the test compounds dissolved in CMC vehicle or hydroxypropylmethyl cellulose based vehicle. Control animals received only the vehicle. After 1 h, LPS (50 μg/mouse, Sigma #13129, Sigma Chemical Co., St. Louis, Mo.) was injected intraperitoneally. After 1.5 h, blood was collected from the retro-rbital plexus region of the animals in a miicrotainer serum separator tube (Becton Dickinson, Cat. No. #5960, Becton Dickinson & Co., Franklin Lakes, N.J.). The sera was separated and the amount of TNF-α was determined using the EM-TNFA® kit (Endogen, Woburn, Mass.) by following the manufacturer's protocol.

Collagenase-III = experiment: MMP enzymatic assay, hydrolysis of MCA-Pro-Leu-Gly-Leu-DPA-Ala-Arg-NH2, Collagenase-III; assay type: biochemical; settings: 37° C., pH 7.5, 2.5% DMSO
Description: The propeptide and catalytic domain portion of human collagenase-3 was expressed in E. Coli as an N-terminal fusion protein with ubiquitin. After purification, the catalytic domain was released by treatment with 1 mM APMA for 1 hour at 37° C., and then purified by zinc chelate chromatography.
Rat collagenase-3 was purified in active form from the culture media of uterine smooth muscle cells as described in Roswit, W. T. et al., Arch. Biochem. Biophys., 225, 285-295 (1983).
The matrix metalloprotease inhibitory activity of compounds of this invention in vitro was determined based on the hydrolysis of MCA-Pro-Leu-Gly-Leu-DPA-Ala-Arg-NH2 (Bachem, Inc.) at 37° C. as described in Knight, C. G., et al., FEBS Lett., 296, 263-266 (1992).
The matrix metalloprotease enzyme was diluted with assay buffer (50 mM Tricine pH 7.5, 200 mM NaCl, 10 mM CaCl2, and 0.005% Brij-35) containing 10 μmole of above substrate dissolved in DMSO. Compounds of the invention dissolved in DMSO or only DMSO (control samples) were added such that the final DMSO concentration in all assays was 2.5%. The fluorescence changes were monitored with a Perkin-Elmer LS-50B flourimeter using an excitation wavelength of 328 nm and an emission wavelength of 393 nm.

[1] = system: TNF-α release from Human Monomac 6 cells; experiment: Inhibition of TNF release in vitro, Monomac 6 cells, LPS/PMA; assay type: cell-based; settings: 2 h; for inhibition at 10 µM: MONO-MAC-6, 10 μM, read-out: TNF-α % inhibition, Conc. 10 μM; for inhibition at 2 µM: MONO-MAC-6, 2 μM, read-out: TNF-α % inhibition, Conc. 2 μM
Description: The activity of compounds of this invention in inhibiting the TNF release was determined, using the a minor modification of the method described in Pradines-Figueres, A. and Raetz, C. R. H., J. Biol. Chem., 267 (32), 23261, (1992).
Human Monomac 6 cells (Ziegler-Heitbrock, H. W. L., et al., Int. J. Cancer, 41, 456, (1988)) were cultured at 37° C. in RPMI 1640 medium containing 10% fetal calf serum to a density of 1×10^5 cells/ml. 0.23 ml of these cells were placed in each well of a tissue culture plate and the cells were incubated for 15 min. The test compounds were dissolved in above mentioned medium and added and the incubation was continued for an additional 15 min. 10 μl of an lipopolysaccharide/phorbol-12-myristate-13-acetate (LPS/PMA) mixture was added such that the final concentration of lipopolysaccharide was 10 ng/ml and the final concentration of phorbol-12-myristate-13-acetate was 30 ng/ml. The cells were incubated for 2 h after which the plate was centrifuged and the medium was removed and analyzed for TNF content. The analysis was performed using a TNF Quantikine® Inmunoassay (R & D Systems, Minneapolis, Minn. 55413) by following the manufacturer's protocol.
The TNF-α inhibitory activity of test materials, i.e., the measure of the TNF-α content in the test group relative to the vehicle treated group (control group) was: […]

Structure (SMILES)	TNF-α % inhibition (TNF-α) [%]	IC50 (Collagenase-III) [nM]	inhibition at 10 µM [1] [%]	inhibition at 2 µM [1] [%]
O=C(NO)C1CCCCN1S(=O)(=O)N1CCCCC1 (racemic) [compound 233]	46	–	–	–
O=C(NO)C1CCCCN1S(=O)(=O)N1CCN(c2ccc(Cl)cc2)CC1 (racemic) [compound 234, N-hydroxy-1-[4-(4-chlorophenyl)piperazine-1-sulfonyl]piperidine-2-(RS)-carboxamide]	46	–	–	–
O=C(NO)C1CCCCN1S(=O)(=O)N1CCC(c2c[nH]c3ccc(F)cc23)CC1 (racemic) [compound 254, N-hydroxy-1-[4-(5-fluoroindol-3-yl)piperidine-1-sulfonyl]piperidine-2-(RS)-carboxamide]	–	181	94	–
CC(=O)N1CCN(S(=O)(=O)N2CCC(C(=O)c3ccc(Cl)cc3)CC2)C(C(=O)NO)C1 (racemic) [compound 255, N-hydroxy-4-acetyl-1-[4-(4-chlorobenzoyl)piperidine-1-sulfonyl]piperazine-2-(RS)-carboxamide]	–	0.19	97	–
O=C(NO)C1CCCCN1S(=O)(=O)N1CCC(c2c[nH]c3cc(Cl)ccc23)CC1 (racemic) [compound 256, N-hydroxy-1-[4-(6-chloroindol-3-yl)piperidine-1-sulfonyl]piperidine-2-(RS)-carboxamide]	–	33	79	–
O=C(NO)C1CCCCN1S(=O)(=O)N1CCC(c2noc3cc(F)ccc23)CC1 (racemic) [compound 286, N-hydroxy-1-[4-(6-fluorobenzisoxazol-3-yl)piperidine-1-sulfonyl]piperidine-2-(RS)-carboxamide]	–	0.063	–	–
O=C(NO)C1CCCCN1S(=O)(=O)N1CC=C(c2ccc(Cl)cc2)CC1 (racemic) [compound 375, N-hydroxy-1-[4-(4-chlorophenyl)-1,2,3,6-tetrahydropyridine-1-sulfonyl]piperidine-2-(RS)-carboxamide]	–	–	–	85
Cc1cc(C2=CCN(S(=O)(=O)N3CCN(C(=O)OCc4ccccc4)CC3C(=O)NO)CC2)ccc1F (racemic) [compound 381, N-hydroxy-4-benzyloxycarbonyl-1-[4-(4-fluoro-3-methylphenyl)-1,2,3,6-tetrahydropyridine-1-sulfonyl]piperazine-2-(RS)-carboxamide]	–	–	–	10
Cc1cc(C2=CCN(S(=O)(=O)N3CCN(C(=O)OC(C)(C)C)CC3C(=O)NO)CC2)ccc1F (racemic) [compound 384]	–	–	96	–
CC(C)[C@H](C(=O)NO)N(Cc1ccccc1)S(=O)(=O)N1CCCCC1 [compound 1, N-hydroxy-2-(R)-[benzyl-(piperidine-1-sulfonyl)amino]-3-methylbutyramide]	–	660	–	–
COCCN(CC(=O)NO)S(=O)(=O)N1CCN(c2ccc(Cl)cc2)CC1 [compound 16]	–	21	< 15	–
O=C(NO)[C@H](CSCc1ccccc1)NS(=O)(=O)N1CCN(c2ccc(Cl)cn2)CC1 [compound 102]	–	0.92	56	–
CC(C)[C@H](C(=O)NO)N(CCCc1cccnc1)S(=O)(=O)N1CCC(Oc2ccc(Br)cc2)CC1 [compound 105]	–	0.59	20	–
CC(C)[C@@H](NS(=O)(=O)N1CCC(c2nc(-c3ccccc3)c[nH]2)CC1)C(=O)NO [compound 133, N-hydroxy-2-(R)-{[4-(4-phenylirnidazol-2-yl)piperidine-1-sulfonyl]amino}-3-methylbutyramide]	–	18	32	–
CC(C)[C@@H](NS(=O)(=O)N1CCC(C(=O)c2ccc(Cl)cc2)CC1)C(=O)NO [compound 134]	42	–	–	–
C[C@@H](NS(=O)(=O)N1CCN(C(=O)Nc2ccc(Cl)cc2)CC1)C(=O)NO [compound 177, N-hydroxy-2-(R)-{[4-(4-chlorophenylaminocarbonyl)piperazine-1-sulfonyl]amino}propionamide]	–	1.6	< 15	–

Structure (SMILES)	TNF-α % inhibition (TNF-α) [%]	IC50 (Collagenase-III) [nM]	inhibition at 10 µM [1] [%]	inhibition at 2 µM [1] [%]
C[C@@H](NS(=O)(=O)N1CCC(c2cccc3ccccc23)CC1)C(=O)NO [compound 216]	41	–	–	–
O=C(NO)[C@H]1CCCCN1S(=O)(=O)N1CCCC1 [compound 232, N-hydroxy-1-(pyrrolidine-1-sulfonyl)piperidine-2-(R)-carboxamide]	73	–	–	–
CN(C)C(=O)N1CCN(S(=O)(=O)N2CCC(C(=O)c3ccc(Cl)cc3)CC2)[C@@H](C(=O)NO)C1 [compound 298, N-hydroxy-1-[4-(4-chlorobenzoyl)piperidine-1-sulfonyl]-4-(N,N-dimethylaminocarbonyl)piperazine-2-(R)-carboxamide]	–	0.2	–	70
CN(C)C(=O)N1CCN(S(=O)(=O)N2CCC(c3ccc(F)cc3)CC2)[C@@H](C(=O)NO)C1 [compound 313, N-hydroxy-4-(N,N-dimethylaminocarbonyl)-1-[4-(4-fluorophenyl)piperidine-1-sulfonyl]piperazine-2-(R)-carboxamide]	–	–	–	73
O=C(NO)[C@H]1CCCCN1S(=O)(=O)N1CCc2c([nH]c3ccccc23)C1 [compound 314, N-hydroxy-1-[1,2,3,4-tetrahydro-beta-carboline-2-sulfonyl]piperidine-2-(R)-carboxamide]	–	–	–	72
CN(C)S(=O)(=O)N1CCN(S(=O)(=O)N2CCC(C(=O)c3ccc(Cl)cc3)CC2)[C@@H](C(=O)NO)C1 [compound 315, N-hydroxy-1-[4-(4-chlorobenzoyl)piperidine-1-sulfonyl]-4-(N,N-dimethylaminosulfonyl)piperazine-2-(R)-carboxamide]	–	0.1	–	86
O=C(c1ccc(Cl)cc1)C1CCN(S(=O)(=O)N2CCN(C(=O)c3cnccn3)C[C@@H]2C(=O)NO)CC1 [compound 319, N-hydroxy-1-[4-(4-chlorobenzoyl)piperidine-1-sulfonyl]-4-(1,4-pyrazin-2-yl-carbonyl)-piperazine-2-(R)-carboxamide]	50	–	–	81
O=C(NO)C1(NS(=O)(=O)N2CCN(c3ccc(Cl)cn3)CC2)CCCCC1 [compound 342]	–	2.1	–	–
O=C(NO)C1(NS(=O)(=O)N2CCN(c3ccc(Cl)cc3)CC2)CCCCC1 [compound 345, N-hydroxy-1-{[4-(4-chlorophenyl)piperazine-1-sulfonyl]amino}-cyclohexane-1-carboxamide]	–	6.6	–	–
CN(Cc1ccccc1)S(=O)(=O)N(CC(=O)NO)Cc1ccccc1 [compound 355]	–	56	< 15	–
C[C@@H](NS(=O)(=O)N1CC=C(c2ccc(Cl)cc2)CC1)C(=O)NO [compound 401]	–	0.19	97	–
O=C(NO)C(NS(=O)(=O)N1CC=C(c2ccc(Cl)cc2)CC1)c1ccc(F)cc1 (centres unmarked) [compound 409]	–	–	86	–
C[C@@H](NS(=O)(=O)N1CCN(c2ccc(Cl)cc2)CC1)C(=O)O [compound 414, 2-(R)-{[4-(4-chlorophenyl)piperazino-1-sulfonyl]amino}propionic acid]	–	3400	–	–
CN(Cc1ccccc1)S(=O)(=O)N(CC(=O)O)Cc1ccccc1 [compound 430, 2-[benzyl-(benzylmethylaminosulfonyl)amino]acetic acid]	–	890	–	–
C[C@H](C(=O)O)N(Cc1ccccc1)S(=O)(=O)NCc1ccccc1 [compound 431]	–	6500	–	–
